Measured values from patent publication US11254663B2 (BRISTOL-MYERS SQUIBB COMPANY, priority 2019, dated 2022).

target: FXR (Homo sapiens (Human), UniProt Q96RI1); assay: transient human FXR/Gal4-luciferase reporter assay; format: cell-based; conditions: not given
Procedure, shortened: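 Compound exposure ran overnight at 37 °C and activity was measured as luminescence with Steady-Glo reagent. The cells were a HEK293 line stably expressing firefly luciferase under five Gal4 response elements. They were transiently transfected, one night beforehand, with a plasmid encoding Gal4 DNA-binding domain fused to the human FXR ligand-binding domain.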

FXR, sequence (Q96RI1 262-486): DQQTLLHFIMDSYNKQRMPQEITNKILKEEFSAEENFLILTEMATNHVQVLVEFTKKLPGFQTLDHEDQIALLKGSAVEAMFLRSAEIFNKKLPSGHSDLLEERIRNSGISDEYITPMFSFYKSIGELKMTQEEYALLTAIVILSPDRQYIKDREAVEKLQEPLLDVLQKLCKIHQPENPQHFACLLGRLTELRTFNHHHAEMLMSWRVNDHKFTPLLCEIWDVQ

| Structure (SMILES) | EC50 |
| --- | --- |
| CCOc1ncc(-c2cccc(N(CC34CCC(c5noc(C6(C)COC6)n5)(CC3)CC4)C(=O)[C@H]3C[C@](O)(C(F)(F)F)C3)c2)cn1 [Example 520, (1S,3S)—N-(3-(2-ethoxypyrimidin-5-yl)phenyl)-3-hydroxy-N-((4-(5-(3-methyloxetan-3-yl)-1,2,4-oxadiazol-3-yl)bicyclo[2.2.2]octan-1-yl)methyl)-3-(trifluoromethyl)cyclobutane-1-carboxamide] | 449 nM |
| CCOc1ncc(-c2cccc(N(CC34CCC(c5noc(C(C)(C)C)n5)(CC3)CC4)C(=O)[C@H]3C[C@@H](OC)C3)c2)cn1 [Example 511, (1S,3S)—N-((4-(5-(tert-butyl)-1,2,4-oxadiazol-3-yl)bicyclo[2.2.2]octan-1-yl)methyl)-N-(3-(2-ethoxypyrimidin-5-yl)phenyl)-3-methoxycyclobutane-1-carboxamide] | 411 nM |
| Cc1nc2ccc(-c3cccc(N(CC45CCC(c6nc(C7CC7)no6)(CC4)OC5)C(=O)C4CC(F)(F)C4)c3)cc2s1 [Example 565, N-((1-(3-cyclopropyl-1,2,4-oxadiazol-5-yl)-2-oxabicyclo[2.2.2]octan-4-yl)methyl)-3,3-difluoro-N-(3-(2-methylbenzo[d]thiazol-6-yl)phenyl)cyclobutane-1-carboxamide] | 947 nM |
| CCOc1ccc(-c2cncc(N(CC34CCC(c5nc(C(C)(C)C)no5)(CC3)CC4)C(=O)C34CC(F)(C3)C4)c2)cc1 [Example 476, N-((4-(3-(tert-butyl)-1,2,4-oxadiazol-5-yl)bicyclo[2.2.2]octan-1-yl)methyl)-N-(5-(4-ethoxyphenyl)pyridin-3-yl)-3-fluorobicyclo[1.1.1]pentane-1-carboxamide] | 560 nM |
| Cc1nc2ccc(-c3cccc(N(CC45CCC(c6nnc(C7CC7)o6)(CC4)CC5)C(=O)C4CCC(F)(F)C4)c3)cc2s1 (centres unmarked) [Example 563, N-((4-(5-cyclopropyl-1,3,4-oxadiazol-2-yl)bicyclo[2.2.2]octan-1-yl)methyl)-3,3-difluoro-N-(3-(2-methylbenzo[d]thiazol-6-yl)phenyl)cyclopentane-1-carboxamide] | 154 nM |

same assay, conditions: Gal4-hFXR fusion construct, HEK293 reporter cells; response relative to 8 μM GW-4064

| Structure (SMILES) | EC50 |
| --- | --- |
| CC(C)(F)c1nc(C23CCC(CN(c4cccc(C5=CCOCC5)c4)C(=O)[C@H]4C[C@](O)(C(F)(F)F)C4)(CC2)CC3)no1 [Example 588, (cis)-N-(3-(3,6-dihydro-2H-pyran-4-yl)phenyl)-N-((4-(5-(2-fluoropropan-2-yl)-1,2,4-oxadiazol-3-yl)bicyclo[2.2.2]octan-1-yl)methyl)-3-hydroxy-3-(trifluoromethyl) cyclobutane-1-carboxamide] | 395 nM |
| N#Cc1ccc(-c2cccc(N(CC34CCC(c5nc(C6CC6)no5)(CC3)CC4)C(=O)C34CC(F)(C3)C4)c2)nc1 [Example 297, N-(3-(5-cyanopyridin-2-yl)phenyl)-N-((4-(3-cyclopropyl-1,2,4-oxadiazol-5-yl)bicyclo[2.2.2]octan-1-yl)methyl)-3-fluorobicyclo[1.1.1]pentane-1-carboxamide] | 1250 nM |
| CC(F)(F)c1nc(C23CCC(CN(C(=O)C45CC(F)(C4)C5)c4ccc(F)c(C5CC5)c4)(CC2)CC3)no1 [Example 574, N-(3-cyclopropyl-4-fluorophenyl)-N-((4-(5-(1,1-difluoroethyl)-1,2,4-oxadiazol-3-yl)bicyclo[2.2.2]octan-1-yl)methyl)-3-fluorobicyclo[1.1.1]pentane-1-carboxamide] | 244 nM |
| CC(C)Oc1ccc(-c2ccnc(N(CC34CCC(c5noc(C(C)(F)F)n5)(CC3)CC4)C(=O)N3CCOCC3)c2)cc1 [Example 626, N-((4-(5-(1,1-difluoroethyl)-1,2,4-oxadiazol-3-yl)bicyclo[2.2.2]octan-1-yl)methyl)-N-(4-(4-isopropoxyphenyl)pyridin-2-yl)morpholine-4-carboxamide] | 72 nM |
| Cc1nc2c(C(F)(F)F)cc(-c3cccc(N(CC45CCC(c6nc(C7CC7)no6)(CC4)CC5)C(=O)C45CC(F)(C4)C5)c3)cn2n1 [Example 321, N-((4-(3-cyclopropyl-1,2,4-oxadiazol-5-yl)bicyclo[2.2.2]octan-1-yl)methyl)-3-fluoro-N-(3-(2-methyl-8-(trifluoromethyl)-[1,2,4]triazolo[1,5-a]pyridin-6-yl)phenyl) bicyclo[1.1.1]pentane-1-carboxamide] | 1460 nM |
| O=C(N(CC12CCC(c3nc(C4CC4)no3)(CC1)CC2)c1cccc(-c2ccnc(OC3CC3)n2)c1)C12CC(F)(C1)C2 [Example 337, N-(3-(2-cyclopropoxypyrimidin-4-yl)phenyl)-N-((4-(3-cyclopropyl-1,2,4-oxadiazol-5-yl)bicyclo[2.2.2]octan-1-yl)methyl)-3-fluorobicyclo[1.1.1]pentane-1-carboxamide] | 380 nM |
| CC(C)(C)c1noc(C23CCC(CN(C(=O)C45CC(F)(C4)C5)c4cccc(-c5ccc(NS(C)(=O)=O)cc5)c4)(CC2)CC3)n1 [Example 361, N-((4-(3-(tert-butyl)-1,2,4-oxadiazol-5-yl)bicyclo[2.2.2]octan-1-yl)methyl)-3-fluoro-N-(4′-(methylsulfonamido)-[1,1′-biphenyl]-3-yl)bicyclo[1.1.1]pentane-1-carboxamide] | 843 nM |
| COc1cnc(-c2cccc(N(CC34CCC(c5nc(C(C)(C)C)no5)(CC3)CC4)C(=O)C34CC(F)(C3)C4)c2)nc1 [Example 369, N-((4-(3-(tert-butyl)-1,2,4-oxadiazol-5-yl)bicyclo[2.2.2]octan-1-yl)methyl)-3-fluoro-N-(3-(5-methoxypyrimidin-2-yl)phenyl)bicyclo[1.1.1]pentane-1-carboxamide] | 68 nM |
| N#Cc1cc(-c2cccc(N(CC34CCC(c5nc(C6CC6)no5)(CC3)CC4)C(=O)C34CC(F)(C3)C4)c2)ccc1F [Example 294, N-(3′-cyano-4′-fluoro-[1,1′-biphenyl]-3-yl)-N-((4-(3-cyclopropyl-1,2,4-oxadiazol-5-yl)bicyclo[2.2.2]octan-1-yl)methyl)-3-fluorobicyclo[1.1.1]pentane-1-carboxamide] | 579 nM |
| CC(C)(C)NC(=O)N(CC12CCC(c3noc(C(F)(F)F)n3)(CC1)CC2)c1cccc(-c2ccc(OC(F)F)cc2)c1 [Example 612, 3-(tert-butyl)-1-(4′-(difluoromethoxy)-[1,1′-biphenyl]-3-yl)-1-((4-(5-(trifluoromethyl)-1,2,4-oxadiazol-3-yl)bicyclo[2.2.2]octan-1-yl)methyl)urea] | 65 nM |
| CC(C)(Oc1ccc(-c2cccc(N(CC34CCC(c5noc(C(C)(C)F)n5)(CC3)CC4)C(=O)[C@H]3C[C@](O)(C(F)(F)F)C3)c2)cc1)C(N)=O [Example 654, (cis)-N-(4′-((1-amino-2-methyl-1-oxopropan-2-yl)oxy)-[1,1′-biphenyl]-3-yl)-N-((4-(5-(2-fluoropropan-2-yl)-1,2,4-oxadiazol-3-yl)bicyclo[2.2.2]octan-1-yl)methyl)-3-hydroxy-3-(trifluoromethyl)cyclobutane-1-carboxamide] | 169 nM |
| CCOc1ccc(-c2cccc(N(CC34CCC(c5cnc(C(F)(F)F)nc5)(CC3)OC4)C(=O)C34CC(F)(C3)C4)c2)cc1 [Example 422, N-(4′-ethoxy-[1,1′-biphenyl]-3-yl)-3-fluoro-N-((1-(2-(trifluoromethyl)pyrimidin-5-yl)-2-oxabicyclo[2.2.2]octan-4-yl)methyl)bicyclo[1.1.1]pentane-1-carboxamide] | 1520 nM |
| CCOc1ncc(-c2cccc(N(CC34CCC(c5cc(C6CC6)nn5C)(CC3)CC4)C(=O)C34CC(F)(C3)C4)c2)cn1 [Example 413, N-((4-(3-cyclopropyl-1-methyl-1H-pyrazol-5-yl)bicyclo[2.2.2]octan-1-yl)methyl)-N-(3-(2-ethoxypyrimidin-5-yl)phenyl)-3-fluorobicyclo[1.1.1]pentane-1-carboxamide] | 192 nM |
| CC(C)Oc1ccc(-c2cc(N(CC34CCC(c5noc(C6(F)CC6)n5)(CC3)CC4)C(=O)NC(C)(C)C)ccc2F)cc1 [Example 586, 3-(tert-butyl)-1-(6-fluoro-4′-isopropoxy-[1,1′-biphenyl]-3-yl)-1-((4-(5-(1-fluorocyclopropyl)-1,2,4-oxadiazol-3-yl)bicyclo[2.2.2]octan-1-yl)methyl)urea] | 36 nM |
| CC(C)(F)c1nc(C23CCC(CN(C(=O)OC4CC(F)(F)C4)c4cc(-c5ccc(OC(F)F)cc5)c(F)cn4)(CC2)CC3)no1 [Example 630, 3,3-difluorocyclobutyl(4-(4-(difluoromethoxy)phenyl)-5-fluoropyridin-2-yl)((4-(5-(2-fluoropropan-2-yl)-1,2,4-oxadiazol-3-yl)bicyclo[2.2.2]octan-1-yl)methyl)carbamate] | 160 nM |
| CS(=O)(=O)Nc1ccc(-c2cccc(N(CC34CCC(c5nc(C6CC6)no5)(CC3)CC4)C(=O)C34CC(F)(C3)C4)c2)cn1 [Example 270, N-((4-(3-cyclopropyl-1,2,4-oxadiazol-5-yl)bicyclo[2.2.2]octan-1-yl)methyl)-3-fluoro-N-(3-(6-(methylsulfonamido)pyridin-3-yl)phenyl)bicyclo[1.1.1]pentane-1-carboxamide] | 442 nM |
| CC(C)c1noc(C23CCC(CN(C(=O)C45CC(F)(C4)C5)c4cccc(-c5ccc(NS(=O)(=O)C6CC6)cc5)c4)(CC2)CC3)n1 [Example 379, N-(4′-(cyclopropanesulfonamido)-[1,1′-biphenyl]-3-yl)-3-fluoro-N-((4-(3-isopropyl-1,2,4-oxadiazol-5-yl)bicyclo[2.2.2]octan-1-yl)methyl)bicyclo[1.1.1]pentane-1-carboxamide] | 132 nM |
| O=C(N(CC12CCC(c3nc(C4CC4)no3)(CC1)CC2)c1cccc(-c2ccc(NS(=O)(=O)C3CC3)cc2)c1)C12CC(F)(C1)C2 [Example 269, N-(4′-(cyclopropanesulfonamido)-[1,1′-biphenyl]-3-yl)-N-((4-(3-cyclopropyl-1,2,4-oxadiazol-5-yl)bicyclo[2.2.2]octan-1-yl)methyl)-3-fluorobicyclo[1.1.1]pentane-1-carboxamide] | 142 nM |
